Results as given in patent US20050244359A1, “Topical regulation of triglyceride metabolism” (priority 2004, published 2005).
Values joined by “and” are separate entries in the source; they are usually repeats but may differ in a detail not shown here. Equal values may be shown once.

Tested on: epidermal equivalents
Experiment: Triglyceride production in living skin samples (epidermal equivalents, MatTek), HPTLC analysis
Format: cell-based
Conditions: for net intensity (HPTLC, triglycerides): about 0.1 percent fatty acid, epidermal equivalents cultured for three days, triglycerides extracted in chloroform/methanol (2:1)
Procedure: A set of living skin samples, epidermal equivalents, obtained from MatTek, is tested with a sample of about 0.1 percent palmitoleic acid and about 0.1 percent oleic acid. A media is prepared of a transwell membrane at the air/liquid interface and is cultured for three days. At the end of the incubation period, each skin square is homogenized and its triglycerides extracted in chloroform/methanol (2:1). This is followed by HPTLC analysis. […] After one day of application it is surprising to find the increase in triglyceride concentration in the epidermal equivalents treated with palmitoleic acid. […] The net intensity of oleic acid is 859. In contrast, palmitoleic acid has a net intensity of 1324 and 1212, an average of 1268 net intensity.

Compound | net intensity (HPTLC, triglycerides) | average net intensity (HPTLC, triglycerides) (about 0.1 percent, average of two values) | increase in triglyceride production (about 0.1 percent, epidermal equivalents, HPTLC) [%] | effect on triglyceride production (in words) (epidermal equivalents, HPTLC)
CCCCCC/C=C\CCCCCCCC(=O)O [palmitoleic acid] | 1324 and 1212 | 1268 | ~400 | time and dose-dependent increase in triglyceride production
CCCCCCCC/C=C\CCCCCCCC(=O)O [oleic acid, reference compound] | 859 | – | – | little effect
